Experimental data published in paper PMC4672112, “Purification, Characterization of L-Methioninase from Candida tropicalis, and Its Application as an Anticancer” (Biotechnology Research International, 2015).

Test system: T1, L-methioninase
T1 construct: native, intracellular, purified from C. tropicalis cells (heat treatment, DEAE-cellulose, Sephadex); 46 kDa by SDS-PAGE; PLP enzyme
Assay: DTNB methanethiol assay, […] nm; Lineweaver-Burk plot
Format: biochemical, Candida tropicalis
Conditions: optimum assay conditions (pH 6.5, 45 C, 10 min), PLP; substrate range printed as 1 to 40 uM, which conflicts with the unit of Km; read-out: apparent Km

CSCC[C@H](N)C(=O)O [L-methionine]
Km: 500 µM
